Assay results from US6846823B2, “Method of treating lower urinary tract disorders” (Dynogen Pharmaceuticals, Inc., priority 2003, dated 2005).

What was measured:
[1] = biological target: T1, Monoamine Oxidase-B (MAO-B) (Homo sapiens, UniProt P27338); conditions: cited from earlier work
T1 sequence (P27338 1-520): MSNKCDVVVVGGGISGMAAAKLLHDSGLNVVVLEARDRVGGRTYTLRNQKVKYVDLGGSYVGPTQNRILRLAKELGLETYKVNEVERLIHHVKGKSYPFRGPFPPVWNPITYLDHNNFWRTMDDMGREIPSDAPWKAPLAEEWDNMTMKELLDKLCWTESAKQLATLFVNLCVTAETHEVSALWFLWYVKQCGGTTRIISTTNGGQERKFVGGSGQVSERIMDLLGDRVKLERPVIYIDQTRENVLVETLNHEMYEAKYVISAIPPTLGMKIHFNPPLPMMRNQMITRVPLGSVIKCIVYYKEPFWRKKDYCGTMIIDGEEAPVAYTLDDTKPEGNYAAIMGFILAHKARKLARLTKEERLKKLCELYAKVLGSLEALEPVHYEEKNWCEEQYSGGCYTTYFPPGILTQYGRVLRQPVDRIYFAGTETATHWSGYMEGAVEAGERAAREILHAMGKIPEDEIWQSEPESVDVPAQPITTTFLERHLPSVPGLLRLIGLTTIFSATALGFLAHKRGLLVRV

[2] = test system: bladder capacity during acetic acid irritation; test: Dilute Acetic Acid Model-Cats, cystometry; format: in vivo, cat
Experimental: Six alpha-chloralose anesthetized (50-100 mg/kg) normal female cats (2.5-3.5 kg; Harlan) were utilized in this study.
MCI-225 was dissolved in 5% methylcellulose in water at 3.0, 10.0 or 30 mg/ml Animals were dosed by volume of injection=body weight in kg.
Female cats (2.5-3.5 kg; Harlan) had their food removed the night before the study. The following morning, the cats were anesthetized with isoflurane and prepped for surgery using aseptic technique. Polyethylene catheters were surgically placed to permit the measurement of bladder pressure, urethral pressure, arterial pressure, respiratory rate as well as for the delivery of drugs. Fine wire electrodes were implanted alongside the external urethral anal sphincter. Following surgery, the cats were slowly switched from the gas anesthetic isoflurane (2-3.5%) to alpha-chloralose (50-100 mg/kg). During control cystometry, saline was slowly infused into the bladder (0.5-1.0 ml/min) for 1 hour. The control cystometry was followed by 0.5% acetic acid in saline for the duration of the experiment. After assessing the cystometric variables under these baseline conditions, the effects of MCI-225 on bladder capacity were determined via a 3 point dose response protocol.
Data was analyzed using a non-parametric One-Way ANOVA (Friedman Test) with the post-hoc Dunn's multiple comparison t test. P<0.05 was considered significant.

[3] = test system: α1, α2, β1, β2, 5-HT1, 5-HT1A, 5-HT1C, 5-HT2, 5-HT4, 5-HT6, 5-HT7, D1, D2, Muscarinic, M1, M2, M3, Nicotonic, H1, H2, GABA-A, GABA-B, BZP, Opiate …; conditions: all receptors of the panel other than 5-HT3; read-out: IC50, binding to the additional receptors tested; cited from earlier work
[4] = biological target: T2, 5-HT3 receptor (Mus musculus, UniProt P23979); conditions: radioligand binding; read-out: Ki, affinity for the 5-HT3 receptor; cited from earlier work
T2 construct: host or cells: N1E-115 mouse neuroblastoma cells
T2 sequence (P23979 24-489): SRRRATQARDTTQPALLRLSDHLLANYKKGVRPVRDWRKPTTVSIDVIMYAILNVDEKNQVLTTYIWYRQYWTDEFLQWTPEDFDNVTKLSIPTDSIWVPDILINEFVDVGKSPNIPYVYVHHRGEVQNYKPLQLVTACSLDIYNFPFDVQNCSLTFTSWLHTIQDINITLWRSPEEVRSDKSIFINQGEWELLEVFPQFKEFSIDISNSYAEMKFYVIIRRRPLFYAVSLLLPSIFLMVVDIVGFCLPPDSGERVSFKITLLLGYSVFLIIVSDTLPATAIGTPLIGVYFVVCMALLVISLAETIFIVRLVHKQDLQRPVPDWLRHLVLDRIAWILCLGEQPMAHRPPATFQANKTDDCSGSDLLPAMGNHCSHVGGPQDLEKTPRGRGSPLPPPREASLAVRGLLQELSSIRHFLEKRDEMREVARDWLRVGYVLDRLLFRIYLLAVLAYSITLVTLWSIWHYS

[5] = test system: muscarinic receptors; conditions: cited from earlier work
[6] = biological target: T3, Monoamine Oxidase-A (MAO-A) (Homo sapiens, UniProt P21397); conditions: cited from earlier work
T3 sequence (P21397 1-527): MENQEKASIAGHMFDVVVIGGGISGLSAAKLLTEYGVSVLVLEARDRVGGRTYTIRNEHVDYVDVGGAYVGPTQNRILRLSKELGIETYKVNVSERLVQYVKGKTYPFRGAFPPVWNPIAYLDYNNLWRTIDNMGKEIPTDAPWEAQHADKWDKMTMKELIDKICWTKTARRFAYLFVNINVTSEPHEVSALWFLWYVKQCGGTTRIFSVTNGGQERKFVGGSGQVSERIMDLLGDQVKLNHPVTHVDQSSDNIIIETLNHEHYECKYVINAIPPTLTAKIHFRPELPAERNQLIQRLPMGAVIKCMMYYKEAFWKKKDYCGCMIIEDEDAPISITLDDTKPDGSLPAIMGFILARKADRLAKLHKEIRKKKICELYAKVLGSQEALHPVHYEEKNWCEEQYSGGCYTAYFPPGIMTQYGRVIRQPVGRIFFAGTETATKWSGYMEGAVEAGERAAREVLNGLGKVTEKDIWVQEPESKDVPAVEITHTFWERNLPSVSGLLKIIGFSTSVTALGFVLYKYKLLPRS

[7] = test system: bladder capacity during acetic acid irritation; test: Dilute Acetic Acid Model-rats, filling cystometry; format: in vivo, rat; conditions: for bladder capacity vs AA/Veh 3: rats, intraduodenal
Excerpt: Female rats (250-275 g BW, n=8) were anesthetized with urethane (1.2 g/kg) and a saline-filled catheter (PE-50) was inserted into the proximal duodenum for intraduodenal drug administration. A flared-tipped PE-50 catheter was inserted into the bladder dome, via a midline lower abdominal incision, for bladder filling and pressure recording and secured by ligation. The abdominal cavity was moistened with saline and closed by covering with a thin plastic sheet in order to maintain access to the bladder for emptying purposes. Fine silver or stainless steel wire electrodes were inserted into the external urethral sphincter (EUS) percutaneously for electromyography (EMG). Animals were positioned on a heating pad which maintained body temperature at 37° C.
Saline and all subsequent infusates were continuously infused at a rate of about 0.055 ml/min via the bladder filling catheter for about 60 minutes to obtain a baseline of lower urinary tract activity (continuous cystometry; CMG). […] Bladder capacity (ml) was calculated as the flow rate of the bladder filling solution (ml/min) multiplied by the elapsed time between commencement of bladder filling and occurrence of bladder contraction (min).
Following the control period, a 0.25% acetic acid solution in saline (AA) was infused into the bladder to induce bladder irritation. […] Following injection of the third vehicle control, bladder capacity was again measured, as described above but using AA to fill the bladder. […] Bladder capacity was measured as described above using AA to fill the bladder, at 20 and 50 minutes following each subsequent drug treatment.
Bladder capacity was determined for each treatment regimen as described above (flow rate of the bladder filling solution (ml/min) multiplied by the elapsed time between commencement of bladder filling and occurrence of bladder contraction (min)) and converted to % Bladder Capacity normalized to the last vehicle measurement of the AA/Veh 3 treatment group. Data were then analyzed by non-parametric ANOVA for repeated measures (Friedman Test) with Dunn's Multiple Comparison test. […]

[8] = preclinical and clinical studies, cited from earlier work

Structure (SMILES)	inhibition of MAO-B activity [1]	bladder capacity following acetic acid irritation ([2]; cats n=6, 3 point dose response 3, 10, 30 mg/kg, P<0.0103)	bladder capacity, individual dose significance ([2]; cats, 30 mg/kg, P<0.05)	IC50 [3] [nM]	Ki [4] [nM]	anticholinergic activity [5]	inhibition of MAO-A activity [6]	bladder capacity (% normalized to AA/Veh 3) ([7]; rats n=8, intraduodenal, cumulative 3-30 mg/kg, p=0.0005 Friedman test)	bladder capacity vs AA/Veh 3 ([7]; 10 mg/kg, p<0.05 Dunn's test)	bladder capacity vs AA/Veh 3 ([7]; 30 mg/kg, p<0.001 Dunn's test)	blood levels of gabapentin after XP13512 ([8]; broad range of oral doses)	absorption from the large intestine [8]
Cc1cc2c(-c3ccccc3F)nc(N3CCNCC3)nc2s1 [MCI-225, 4-(2-fluorophenyl)-6-methyl-2-(1-piperazinyl)thieno[2,3-d]pyrimidine]	did not inhibit	significant dose-dependent increase in bladder capacity	individual dose significance attained	> 1000	< 100	substantially no anticholinergic activity	did not inhibit	dose-dependent increase in bladder capacity	significantly higher than AA/Veh 3	significantly higher than AA/Veh 3		
CC(OC(=O)NCC1(CC(=O)O)CCCCC1)OC(=O)C(C)C (stereo not drawn) [XP13512]											dose proportional blood levels of gabapentin	absorbed efficiently from the large intestine
